Source: ChEMBL document CHEMBL1201862, “PubChem BioAssay data set” (2004)
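Values below derive from 48-hour exposures of cells grown in 96-well plates, with endpoints linearly interpolated between the two concentrations bracketing the appropriate inhibition level. Abbreviation: GI50, concentration required for 50% inhibition of growth.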 Activity calls are given as the source filed them. Cut-off read from the data, not from the text of the source: active = GI50 up to about 1.1 µM and inactive = higher.

Tests used:
Experiment in all cases: DTP human tumour cell line panel, 48 h
[1] = test system: SF-539
[2] = test system: HOP-92
[3] = test system: SNB-19
[4] = test system: OVCAR-5
[5] = test system: UO-31
[6] = test system: MDA-MB-231
[7] = test system: NCI/ADR-RES
[8] = test system: SNB-75
[9] = test system: SW-620
[10] = test system: EKVX
[11] = test system: OVCAR-3
[12] = test system: U-251
[13] = test system: MDA-N
[14] = test system: K562
[15] = test system: RXF 393
[16] = test system: MDA-MB-435
[17] = test system: SK-OV-3
[18] = test system: UACC-257
[19] = test system: HCC 2998

SMILES | GI50 [1] | GI50 [2] | GI50 [3] | GI50 [4] | GI50 [5] | GI50 [6] | GI50 [7] | GI50 [8] | GI50 [9] | GI50 [10] | GI50 [11] | GI50 [12] | GI50 [13] | GI50 [14] | GI50 [15] | GI50 [16] | GI50 [17] | GI50 [18] | GI50 [19]
O=S(=O)(O)c1ccc(-c2nnc(-c3ccccn3)nc2-c2ccc(S(=O)(=O)O)o2)o1 | > 100 µM (inactive) | > 100 µM (inactive) | > 100 µM (inactive) | > 100 µM (inactive) | > 100 µM (inactive) | > 100 µM (inactive) | > 100 µM (inactive) | > 100 µM (inactive) | > 100 µM (inactive) | > 100 µM (inactive) | > 100 µM (inactive) | > 100 µM (inactive) | > 100 µM (inactive) | > 100 µM (inactive) | > 100 µM (inactive) | > 100 µM (inactive) | > 100 µM (inactive) |  | 
CC(=O)/C(=C\I)c1ccccc1 | 18 µM (inactive) | 2.45 µM (inactive) | 12.1 µM (inactive) | 1.49 µM (inactive) | 3.85 µM (inactive) | 1.85 µM (inactive) | 10 µM (inactive) | 3.94 µM (inactive) | 1.3 µM (inactive) | 18.6 µM (inactive) | 1.7 µM (inactive) | 2.26 µM (inactive) | 1.62 µM (inactive) | 0.481 µM (active) | 1.66 µM (inactive) | 3.86 µM (inactive) | 13.6 µM (inactive) | 3.04 µM (inactive) | 
COc1cc(Nc2nc3ccc(C(F)(F)F)cc3nc2-c2ccccc2)cc(OC)c1OC | 25.2 µM (inactive) | 0.991 µM (active) |  | 20.7 µM (inactive) | 10 µM (inactive) |  |  | > 100 µM (inactive) | 85.3 µM (inactive) | 18.2 µM (inactive) | 40.6 µM (inactive) | 32.7 µM (inactive) |  | 5.56 µM (inactive) | 30 µM (inactive) |  | > 100 µM (inactive) | 16.1 µM (inactive) | 4.23 µM (inactive)
C=C1c2[nH]c3c([N+](=O)[O-])c(OC)ccc3c2CCN1C(C)=O | > 100 µM (inactive) |  | > 100 µM (inactive) | > 100 µM (inactive) | > 100 µM (inactive) |  |  | 25 µM (inactive) | > 100 µM (inactive) | > 100 µM (inactive) | > 100 µM (inactive) | > 100 µM (inactive) |  | > 100 µM (inactive) | > 100 µM (inactive) |  |  | > 100 µM (inactive) | > 100 µM (inactive)
CCOP(=O)(OCC)OC1CC(n2cnc3c(N(CC)CC)ncnc32)OC1CO[Si](C)(C)C(C)(C)C (centres undefined) | 19.1 µM (inactive) |  | 18.2 µM (inactive) | 19 µM (inactive) | 19.1 µM (inactive) |  | 20.8 µM (inactive) | 11.1 µM (inactive) | 16.2 µM (inactive) | 5.86 µM (inactive) | 20.3 µM (inactive) | 15.1 µM (inactive) | 18 µM (inactive) | 17.8 µM (inactive) | 16.9 µM (inactive) | 17.3 µM (inactive) | 17.5 µM (inactive) | 16.5 µM (inactive) | 23.2 µM (inactive)
Cc1c(Cl)c(=O)oc2cc(OCC(O)COC(C)C)ccc12 (centres undefined) |  | 35 µM (inactive) | > 100 µM (inactive) | > 100 µM (inactive) | 40.3 µM (inactive) |  | 75.7 µM (inactive) |  | 34.4 µM (inactive) | 37.1 µM (inactive) | 97.5 µM (inactive) | 44.9 µM (inactive) | 48.1 µM (inactive) | 23.3 µM (inactive) |  | 60.3 µM (inactive) | > 100 µM (inactive) | 74 µM (inactive) | 16.8 µM (inactive)
O=C(O)CC(Cc1ccccc1)C(=O)O (centres undefined) | > 100 µM (inactive) |  | > 100 µM (inactive) | > 100 µM (inactive) | > 100 µM (inactive) |  | > 100 µM (inactive) |  | > 100 µM (inactive) | > 100 µM (inactive) | > 100 µM (inactive) | > 100 µM (inactive) | 56.5 µM (inactive) | > 100 µM (inactive) | > 100 µM (inactive) | > 100 µM (inactive) | > 100 µM (inactive) | > 100 µM (inactive) | > 100 µM (inactive)
CN(Cc1cnc2nc(N)nc(N)c2n1)c1ccc(C(=O)NC2CCCCC2)cc1 | 13.6 µM (inactive) |  | 14.9 µM (inactive) | 74.3 µM (inactive) | 87.3 µM (inactive) | 33.6 µM (inactive) | > 100 µM (inactive) | 25.2 µM (inactive) | 11.1 µM (inactive) | 53.6 µM (inactive) | 56.2 µM (inactive) | 11.8 µM (inactive) | 7.69 µM (inactive) | 7.33 µM (inactive) | 33 µM (inactive) |  | 54.6 µM (inactive) | 21.3 µM (inactive) | 
COc1ccc(C2=NN(C(=O)COc3ccc(Cl)cc3)C(O)(c3ccc(Cl)cc3)C2)cc1 (centres undefined) | > 100 µM (inactive) | > 100 µM (inactive) | > 100 µM (inactive) | > 100 µM (inactive) | > 100 µM (inactive) |  |  | > 100 µM (inactive) | > 100 µM (inactive) |  | > 100 µM (inactive) | > 100 µM (inactive) |  | > 100 µM (inactive) |  |  | > 100 µM (inactive) | > 100 µM (inactive) | > 100 µM (inactive)
